Structures can show the parent of a compound that is named as a salt. Where two headings read alike, the source gives them in different places. Blank lines part the entries; values can stand above or below the molecule they belong to.
Tested on: POL (peroxidase of sycamore fig latex)
Test: spectrophotometric peroxidase assay, substrate variation
Format: biochemical, Ficus sycomorus
Settings: co-substrate H2O2, free enzyme, standard assay pH 5.5, room temperature (28-30°C)
Excerpt: spectrophotometric peroxidase assay, substrate variation on POL (peroxidase of sycamore fig latex)

SMILES: Cc1cc(-c2cc(C)c(N)c(C)c2)cc(C)c1N [3,3`,5,5`tetramethylbenzidine]
- Km (read-out: Km (mM substrates) / TMB): 7 ± 0.8 mM

- Km (read-out: Km (mM substrates) / 4C-1N): 5 ± 0.6 mM
SMILES: Oc1ccc(Cl)c2ccccc12 [4-chloro-1-naphthol]

- Km (read-out: Km (mM substrates) / ABTS): 4.5 ± 0.5 mM
SMILES: CCn1c(=NN=c2sc3cc(S(=O)(=O)O)ccc3n2CC)sc2cc(S(=O)(=O)O)ccc21 [ABTS]

SMILES: Nc1ccccc1N [o-phenylenediamine dihydrochloride]
- Km (read-out: Km (mM substrates) / OPD): 5.8 ± 0.4 mM
